Results as given in patent US9738604B2, “Ethynylbenzene derivatives” (Duke University, priority 2010, dated 2017).
In brackets after ≈: the same amount, converted by molar mass. Like-named read-outs stand apart in the source and are kept apart here.

Key:
Type in all cases: cell-based
P. aeruginosa (PAO1) = test: MIC, P. aeruginosa; conditions: for MIC: Pseudomonas aeruginosa, read-out: MIC P. aeruginosa (PAO1)
E. coli W3110RL = test: microbe, parasite or virus in culture; conditions: for MIC: Escherichia coli, W3110RL, 22 h, read-out: MIC E. coli W3110RL; for MIC E. coli W3110RL: E. coli with lpxC of R. leguminosarum, 22 hours at 37° C., MTT
E. coli W3110 = test: microbe, parasite or virus in culture; conditions: for MIC: Escherichia coli, W3110, 22 h, read-out: MIC E. coli W3110
E. coli W3110PA = test: microbe, parasite or virus in culture; conditions: for MIC: Escherichia coli, W3110PA, 22 h, read-out: MIC E. coli W3110PA; for MIC E. coli W3110PA: E. coli with lpxC of P. aeruginosa, 22 hours at 37° C., MTT
[1] = P. aeruginosa PAO1, 22 hours at 37° C., MTT

Structure (SMILES)	MIC (E. coli W3110RL) [µg/mL]	MIC (E. coli W3110) [µg/mL]	MIC (E. coli W3110PA) [µg/mL]	MIC (P. aeruginosa (PAO1); PAO1, 22 h) [µg/mL]	MIC P. aeruginosa (PAO1) (P. aeruginosa (PAO1); [1])	MIC E. coli W3110RL (E. coli W3110RL)	MIC E. coli W3110 (E. coli W3110)	MIC E. coli W3110PA (E. coli W3110PA)	further results
O=C(NO)C(Cc1ccc2ccccc2c1)NS(=O)(=O)c1ccc2ccccc2c1 (stereo not shown)	> 100	1 to 10 (≈ 2.38 to 23.8 µM)	> 100	–	–	–	–	–	MIC (P. aeruginosa (PAO1); [1]): > 100 µg/mL
C[C@@H](O)[C@H](NC(=O)c1ccc(C#Cc2ccccc2)cc1)C(=O)NO	> 100	< 1	< 1	–	–	–	–	–	MIC (P. aeruginosa (PAO1); [1]): 1 to 10 µg/mL (≈ 2.96 to 29.6 µM)
CCCc1cc(C2=N[C@@H](C(=O)NO)CO2)cc(OC)c1OC	> 100	–	> 100	–	–	–	–	–	–
C[C@@H](O)[C@H](NC(=O)c1ccc(C#CC#CCN(C)C)cc1)C(=O)NO [CPD-007, 4-(5-(dimethylamino)penta-1,3-diynyl)-N-((2S,3R)-3-hydroxy-1-(hydroxyamino)-1-oxobutan-2-yl)benzamide]	> 100	1 to 10 (≈ 2.91 to 29.1 µM)	1 to 10 (≈ 2.91 to 29.1 µM)	1 to 10 (≈ 2.91 to 29.1 µM)	–	–	–	–	–
C[C@@H](O)[C@H](NC(=O)c1ccc(C#CC#Cc2ccccc2)cc1)C(=O)NO [CPD-009, N-((2S,3R)-3-hydroxy-1-(hydroxyamino)-1-oxobutan-2-yl)-4-(phenylbuta-1,3-diynyl)benzamide]	1 to 10 (≈ 2.76 to 27.6 µM)	< 1	< 1	< 1	–	–	–	–	–
Nc1ccc(C#CC#Cc2ccc(C(=O)N[C@@H](Cc3c[nH]cn3)C(=O)NO)cc2)cc1 [CPD-014, (2S)-2-({4′-[4′-(4′-aminophenyl)buta-1′,3′-diyn-1′-yl]phenyl}formamido)-N-hydroxy-3-(1′H-imidazol-4′-yl)propanamide]	–	–	–	–	B (1-10 μg/mL)	E (>100 μg/mL)	A (key: A: <1 μg/mL; B: 1-10 μg/mL; C: 11-50 μg/mL; D: 51-100 μg/mL; E: >100 μg/mL)	B (1-10 μg/mL)	–
Nc1cccc(C#CC#Cc2ccc(C(=O)N[C@@H](Cc3c[nH]cn3)C(=O)NO)cc2)c1 [CPD-015, (2S)-2-({4′-[4′-(3′-aminophenyl)buta-1′,3′-diyn-1′-yl]phenyl}formamido)-N-hydroxy-3-(1′H-imidazol-4′-yl)propanamide]	> 100	< 1	51 to 100 (≈ 123 to 242 µM)	1 to 10 (≈ 2.42 to 24.2 µM)	–	–	–	–	–
Nc1ccccc1C#CC#Cc1ccc(C(=O)N[C@@H](Cc2c[nH]cn2)C(=O)NO)cc1 [CPD-016, (2S)-2-({4′-[4′-(2′-aminophenyl)buta-1′,3′-diyn-1′-yl]phenyl}formamido)-N-hydroxy-3′-(1′H-imidazol-4′-yl)propanamide]	> 100	1 to 10 (≈ 2.42 to 24.2 µM)	51 to 100 (≈ 123 to 242 µM)	> 100	–	–	–	–	–
CC(C)(C)OC(=O)CC[C@H](NC(=O)c1ccc(C#CC#Cc2ccc(N)cc2)cc1)C(=O)NO [CPD-017, Tert-butyl (4S)-4-({4′-[4′-(4′-aminophenyl)buta-1′,3′-diyn-1′-yl]phenyl}formamido)-4-(hydroxycarbamoyl)butanoate]	–	–	–	–	E (>100 μg/mL)	E (>100 μg/mL)	C (key: A: <1 μg/mL; B: 1-10 μg/mL; C: 11-50 μg/mL; D: 51-100 μg/mL; E: >100 μg/mL)	E (>100 μg/mL)	–
Nc1ccc(C#CC#Cc2ccc(C(=O)N[C@@H](CCC(=O)O)C(=O)NO)cc2)cc1 [CPD-018, (4S)-4-({4′-[4′-(4′-aminophenyl)buta-1′,3′-diyn-1′-yl]phenyl}formamido)-4-(hydroxycarbamoyl)butanoic acid]	–	–	–	–	C (11-50 μg/mL)	E (>100 μg/mL)	–	D (51-100 μg/mL)	MIC E. coli W3110 (E. coli W3110; wild-type E. coli W3110, 22 hours at 37° C., MTT): B (1-10 μg/mL)
Nc1ccc(C#CC#Cc2ccc(C(=O)N[C@@H](CC(=O)O)C(=O)NO)cc2)cc1 [CPD-019, (3S)-3-({4′-[4′-(4′-aminophenyl)buta-1′,3′-diyn-1′-yl]phenyl}formamido)-3-(hydroxycarbamoyl)propane acid]	–	–	–	–	E (>100 μg/mL)	E (>100 μg/mL)	D (key: A: <1 μg/mL; B: 1-10 μg/mL; C: 11-50 μg/mL; D: 51-100 μg/mL; E: >100 μg/mL)	E (>100 μg/mL)	–
C[C@H](NC(=O)c1ccc(C#CC#Cc2ccc(N)cc2)cc1)C(=O)NO [CPD-020, (2S)-2-({4′-[4′-(4′-aminophenyl)buta-1′,3′-diyn-1′-yl]phenyl}formamido)-N-hydroxypropanamide]	–	–	–	–	C (11-50 μg/mL)	B (1-10 μg/mL)	A (key: A: <1 μg/mL; B: 1-10 μg/mL; C: 11-50 μg/mL; D: 51-100 μg/mL; E: >100 μg/mL)	B (1-10 μg/mL)	–
NC[C@H](NC(=O)c1ccc(C#CC#Cc2ccc(N)cc2)cc1)C(=O)NO [CPD-021, (2S)-3-amino-2-({4′-[4′-(4′-aminophenyl)buta-1′,3′-diyn-1-yl]phenyl}formamido)-N-hydroxypropanamide]	–	–	–	–	B (1-10 μg/mL)	E (>100 μg/mL)	B (key: A: <1 μg/mL; B: 1-10 μg/mL; C: 11-50 μg/mL; D: 51-100 μg/mL; E: >100 μg/mL)	C (11-50 μg/mL)	–
CC(C)[C@H](NC(=O)c1ccc(C#CC#Cc2ccc(N)cc2)cc1)C(=O)NO [CPD-022, (2S)-2-({4′-[4′-(4′-aminophenyl)buta-1′,3′-diyn-1′-yl]phenyl}formamido)-N-hydroxy-3-methylbutanamide]	–	–	–	–	B (1-10 μg/mL)	D (51-100 μg/mL)	A (key: A: <1 μg/mL; B: 1-10 μg/mL; C: 11-50 μg/mL; D: 51-100 μg/mL; E: >100 μg/mL)	A (<1 μg/mL)	–
CC[C@@H](C)[C@H](NC(=O)c1ccc(C#CC#Cc2ccc(N)cc2)cc1)C(=O)NO [CPD-023, (2S,3R)-2-({4′-[4′-(4′-aminophenyl)buta-1′,3′-diyn-1-yl]phenyl}formamido)-N-hydroxy-3-methylpentanamide]	–	–	–	–	D (51-100 μg/mL)	C (11-50 μg/mL)	A (key: A: <1 μg/mL; B: 1-10 μg/mL; C: 11-50 μg/mL; D: 51-100 μg/mL; E: >100 μg/mL)	B (1-10 μg/mL)	–
Nc1ccc(C#CC#Cc2ccc(C(=O)NCC(=O)NO)cc2)cc1 [CPD-024, 2-({4′-[4′-(4′-aminophenyl)buta-1′,3′-diyn-1′-yl]phenyl}formamido)-N-hydroxyacetamide]	–	–	–	–	D (51-100 μg/mL)	E (>100 μg/mL)	A (key: A: <1 μg/mL; B: 1-10 μg/mL; C: 11-50 μg/mL; D: 51-100 μg/mL; E: >100 μg/mL)	C (11-50 μg/mL)	–
Nc1ccc(C#CC#Cc2ccc(C(=O)N[C@@H](Cc3ccccc3)C(=O)NO)cc2)cc1 [CPD-025, (2S)-2-({4′-[4′-(4′-aminophenyl)buta-1′,3′-diyn-1′-yl]phenyl}formamido)-N-hydroxy-3-phenylpropanamide]	–	–	–	–	D (51-100 μg/mL)	E (>100 μg/mL)	B (key: A: <1 μg/mL; B: 1-10 μg/mL; C: 11-50 μg/mL; D: 51-100 μg/mL; E: >100 μg/mL)	E (>100 μg/mL)	–
C[C@@](O)(C(F)F)[C@H](NC(=O)c1ccc(C#Cc2ccc(CN3CCOCC3)cc2)cc1)C(=O)NO [CPD-069, N-((2S,3S)-4,4-difluoro-3-hydroxy-1-(hydroxyamino)-3-methyl-1-oxobutan-2-yl)-4-((4-(morpholinomethyl)phenyl)ethynyl)benzamide]	–	< 1	–	1 to 10 (≈ 2.05 to 20.5 µM)	–	–	–	–	–
Nc1ccc(C#CC#Cc2ccc(C(=O)N[C@@H]3CN(O)C3=O)cc2)cc1 [CPD-071, (R)-4-((4-aminophenyl)buta-1,3-diynyl)-N-(1-hydroxy-2-oxoazetidin-3-yl)benzamide]	–	1 to 10 (≈ 2.9 to 29 µM)	–	51 to 100 (≈ 148 to 290 µM)	–	–	–	–	–
C[C@](O)(c1c[nH]nn1)C(NC(=O)c1ccc(C#CC#Cc2ccc(N)cc2)cc1)C(=O)NO (stereo partly drawn) [CPD-072, 4-((4-aminophenyl)buta-1,3-diynyl)-N-((3R)-3-hydroxy-1-(hydroxyamino)-1-oxo-3-(1H-1,2,3-triazol-4-yl)butan-2-yl)benzamide]	–	< 1	–	< 1	–	–	–	–	–
C[C@@](N)(C(F)F)C(NC(=O)c1ccc(C#CC#Cc2ccc(N)cc2)cc1)C(=O)NO (stereo partly drawn) [CPD-079, N-((3S)-3-amino-4,4-difluoro-1-(hydroxyamino)-3-methyl-1-oxobutan-2-yl)-4-((4-aminophenyl)buta-1,3-diynyl)benzamide]	–	< 1	–	< 1	–	–	–	–	–
C[C@@](N)(C(F)F)[C@H](NC(=O)c1ccc(C#Cc2ccc(CN3CCOCC3)cc2)cc1)C(=O)NO [CPD-080, N-((2S,3S)-3-amino-4,4-difluoro-1-(hydroxyamino)-3-methyl-1-oxobutan-2-yl)-4-((4-(morpholinomethyl)phenyl)ethynyl)benzamide]	–	< 1	–	< 1	–	–	–	–	–
